Read-outs that look alike come from different tables or passages of the source.
Test system: panel of 55 breast cancer cell lines
Test: Cell growth inhibition assay (Cell Titer Glo, 72 h, 9 doses; GI50, TGI, LC50)
Format: cell-based, human
Settings: Homo sapiens, read-out: GI50 (converted)

## COc1cccc2c1C(=O)c1c(O)c3c(c(O)c1C2=O)C[C@@](O)(C(=O)CO)C[C@@H]3O[C@H]1C[C@H](N)[C@H](O)[C@H](C)O1 [Doxorubicin]
600MPE cell line, censored GI50 values
  GI50: 269 nM
AU565, AU565 cell line, censored GI50 values
  GI50: 93.3 nM
AU565, cell line AU565
  GI50: 93.3 nM
BT-474, BT474 cell line, censored GI50 values
  GI50: 309 nM
BT-474, cell line BT474
  GI50: 309 nM
BT-483, BT483 cell line, censored GI50 values
  GI50: 151 nM
BT-483, cell line BT483
  GI50: 151 nM
CAMA-1, CAMA1 cell line, censored GI50 values
  GI50: 263 nM
CAMA-1, cell line CAMA1
  GI50: 263 nM
HCC38, HCC38 cell line, censored GI50 values
  GI50: 72.4 nM
HCC38, cell line HCC38
  GI50: 72.4 nM
HCC70, HCC70 cell line, censored GI50 values
  GI50: 2290 nM
HCC70, cell line HCC70
  GI50: 2290 nM
HCC202, HCC202 cell line, censored GI50 values
  GI50: 525 nM
HCC202, cell line HCC202
  GI50: 525 nM
HCC1143, HCC1143 cell line, censored GI50 values
  GI50: 525 nM
HCC1143, cell line HCC1143
  GI50: 525 nM
HCC1187, HCC1187 cell line, censored GI50 values
  GI50: 132 nM
HCC1187, cell line HCC1187
  GI50: 132 nM
HCC1395, HCC1395 cell line, censored GI50 values
  GI50: 251 nM
HCC1395, cell line HCC1395
  GI50: 251 nM
HCC1419, HCC1419 cell line, censored GI50 values
  GI50: 513 nM
HCC1419, cell line HCC1419
  GI50: 513 nM
HCC1428, HCC1428 cell line, censored GI50 values
  GI50: 1200 nM
HCC1428, cell line HCC1428
  GI50: 1200 nM
HCC1500, HCC1500 cell line, censored GI50 values
  GI50: 200 nM
HCC1500, cell line HCC1500
  GI50: 200 nM
HCC1806, HCC1806 cell line, censored GI50 values
  GI50: 162 nM
HCC1806, cell line HCC1806
  GI50: 162 nM
HCC1954, HCC1954 cell line, censored GI50 values
  GI50: 186 nM
HCC1954, cell line HCC1954
  GI50: 186 nM
HCC2185 cell line, censored GI50 values
  GI50: 69.2 nM
HCC3153 cell line, censored GI50 values
  GI50: 355 nM
LY2 cell line, censored GI50 values
  GI50: 195 nM
MCF7, MCF7 cell line, censored GI50 values
  GI50: 501 nM
MCF7, cell line MCF7
  GI50: 501 nM
MDA-MB-134-VI, MDAMB134VI cell line, censored GI50 values
  GI50: 1200 nM
MDA-MB-157, MDAMB157 cell line, censored GI50 values
  GI50: 398 nM
MDA-MB-157, cell line MDAMB157
  GI50: 398 nM
MDA-MB-175-VII, MDAMB175VII cell line, censored GI50 values
  GI50: 708 nM
MDA-MB-231, MDAMB231 cell line, censored GI50 values
  GI50: 214 nM
MDA-MB-231, cell line MDAMB231
  GI50: 214 nM
MDA-MB-361, MDAMB361 cell line, censored GI50 values
  GI50: 234 nM
MDA-MB-361, cell line MDAMB361
  GI50: 234 nM
MDA-MB-415, MDAMB415 cell line, censored GI50 values
  GI50: 372 nM
MDA-MB-415, cell line MDAMB415
  GI50: 372 nM
MDA-MB-436, MDAMB436 cell line, censored GI50 values
  GI50: 589 nM
MDA-MB-436, cell line MDAMB436
  GI50: 589 nM
MDA-MB-453, MDAMB453 cell line, censored GI50 values
  GI50: 214 nM
MDA-MB-453, cell line MDAMB453
  GI50: 214 nM
MDA-MB-468, MDAMB468 cell line, censored GI50 values
  GI50: 741 nM
MDA-MB-468, cell line MDAMB468
  GI50: 741 nM
SK-BR-3, SKBR3 cell line, censored GI50 values
  GI50: 126 nM
SK-BR-3, cell line SKBR3
  GI50: 126 nM
SUM52PE, SUM52PE cell line, censored GI50 values
  GI50: 97.7 nM
SUM52PE, cell line SUM52PE
  GI50: 97.7 nM
SUM185PE, SUM185PE cell line, censored GI50 values
  GI50: 309 nM
SUM185PE, cell line SUM185PE
  GI50: 309 nM
SUM1315MO2, SUM1315MO2 cell line, censored GI50 values
  GI50: 214 nM
SUM-159-PT, SUM159PT cell line, censored GI50 values
  GI50: 347 nM
SUM-159-PT, cell line SUM159PT
  GI50: 347 nM
UACC-812, UACC812 cell line, censored GI50 values
  GI50: 74.1 nM
UACC-812, cell line UACC812
  GI50: 74.1 nM
UACC-893, UACC893 cell line, censored GI50 values
  GI50: 832 nM
UACC-893, cell line UACC893
  GI50: 832 nM
ZR-75-1, ZR751 cell line, censored GI50 values
  GI50: 138 nM
ZR-75-1, cell line ZR751
  GI50: 138 nM
ZR-75-30, ZR7530 cell line, censored GI50 values
  GI50: 110 nM
ZR-75-30, cell line ZR7530
  GI50: 110 nM
ZR-75B, ZR75B cell line, censored GI50 values
  GI50: 251 nM
ZR-75B, cell line ZR75B
  GI50: 251 nM
Cell line 600MPE
  GI50: 269 nM
Cell line HCC2185
  GI50: 69.2 nM
Cell line HCC3153
  GI50: 355 nM
Cell line LY2
  GI50: 195 nM
Cell line MDAMB134V
  GI50: 1200 nM
Cell line MDAMB175V
  GI50: 708 nM
Cell line SUM1315MO
  GI50: 214 nM
